Results taken from ChEMBL document CHEMBL5252555, “Antimicrobial Polyketides from the Marine-Derived Fungus Spiromastix sp. SCSIO F190” (J Nat Prod, 2023).
In brackets after ≈: the same amount, converted by molar mass. Activity calls are given as the source filed them. The rule behind the calls is not given here.

Experiments:
Enterococcus faecium [1] = assay: Antibacterial activity against Enterococcus faecium 35682 assessed as inhibition of bacterial growth incubated for 18 hrs by broth microdilution method; assay type: functional
Staphylococcus aureus [2] = assay: Antibacterial activity against Staphylococcus aureus 6917 assessed as inhibition of bacterial growth incubated for 18 hrs by broth microdilution method; assay type: functional
HUVEC = assay: Cytotoxicity against HUVEC cells incubated for 48 hrs by CCK-8 assay; assay type: toxicity, cell-based; conditions: human
MCF7 = assay: Cytotoxicity against human MCF7 cells incubated for 48 hrs by CCK-8 assay; assay type: functional, cell-based
Enterococcus faecium [3] = assay: Antibacterial activity against Enterococcus faecium 36235 assessed as inhibition of bacterial growth incubated for 18 hrs by broth microdilution method; assay type: functional
Enterococcus faecalis [4] = assay: Antibacterial activity against Enterococcus faecalis 36950 assessed as inhibition of bacterial growth incubated for 18 hrs by broth microdilution method; assay type: functional
Bacillus subtilis = assay: Antibacterial activity against Bacillus subtilis BS01 assessed as inhibition of bacterial growth incubated for 18 hrs by broth microdilution method; assay type: functional
Staphylococcus simulans = assay: Antibacterial activity against Staphylococcus simulans AKA1 assessed as inhibition of bacterial growth incubated for 18 hrs by broth microdilution method; assay type: functional
Staphylococcus aureus [5] = assay: Antibacterial activity against Staphylococcus aureus ATCC 29213 assessed as inhibition of bacterial growth incubated for 18 hrs by broth microdilution method; assay type: functional
HepG2 = assay: Cytotoxicity against human HepG2 cells incubated for 48 hrs by CCK-8 assay; assay type: functional, cell-based
RBE = assay: Cytotoxicity against human RBE cells incubated for 48 hrs by CCK-8 assay; assay type: functional, cell-based
Micrococcus luteus = assay: Antibacterial activity against Micrococcus luteus ML01 assessed as inhibition of bacterial growth incubated for 18 hrs by broth microdilution method; assay type: functional
Staphylococcus aureus [6] = assay: Antibacterial activity against Staphylococcus aureus 718306 assessed as inhibition of bacterial growth incubated for 18 hrs by broth microdilution method; assay type: functional
[7] = Cytotoxicity against human LX2 cells incubated for 48 hrs by CCK-8 assay; assay type: toxicity, cell-based; conditions: lx-2, 48 h
Staphylococcus aureus [8] = assay: Antibacterial activity against Staphylococcus aureus 3090 assessed as inhibition of bacterial growth incubated for 18 hrs by broth microdilution method; assay type: functional
Enterococcus faecalis [9] = assay: Antibacterial activity against Enterococcus faecalis ATCC 29212 assessed as inhibition of bacterial growth incubated for 18 hrs by broth microdilution method; assay type: functional
HeLa = assay: Cytotoxicity against human HeLa cells incubated for 48 hrs by CCK-8 assay; assay type: functional, cell-based
Staphylococcus aureus [10] = assay: Antibacterial activity against Staphylococcus aureus 1862 assessed as inhibition of bacterial growth incubated for 18 hrs by broth microdilution method; assay type: functional
Staphylococcus aureus [11] = assay: Antibacterial activity against Staphylococcus aureus 991 assessed as inhibition of bacterial growth incubated for 18 hrs by broth microdilution method; assay type: functional
HCT-116 = assay: Cytotoxicity against human HCT-116 cells incubated for 48 hrs by CCK-8 assay; assay type: functional, cell-based
Staphylococcus aureus [12] = assay: Antibacterial activity against Staphylococcus aureus 16339 assessed as inhibition of bacterial growth incubated for 18 hrs by broth microdilution method; assay type: functional
Staphylococcus aureus [13] = assay: Antibacterial activity against Staphylococcus aureus GDE4P037P assessed as inhibition of bacterial growth incubated for 18 hrs by broth microdilution method; assay type: functional
Staphylococcus aureus [14] = assay: Antibacterial activity against Staphylococcus aureus 16162 assessed as inhibition of bacterial growth incubated for 18 hrs by broth microdilution method; assay type: functional
Staphylococcus aureus [15] = assay: Antibacterial activity against Staphylococcus aureus 669 assessed as inhibition of bacterial growth incubated for 18 hrs by broth microdilution method; assay type: functional
A549 = assay: Cytotoxicity against human A549 cells incubated for 48 hrs by CCK-8 assay; assay type: functional, cell-based
Staphylococcus aureus [16] = assay: Antibacterial activity against Staphylococcus aureus 745324 assessed as inhibition of bacterial growth incubated for 18 hrs by broth microdilution method; assay type: functional
Enterococcus faecium [17] = assay: Antibacterial activity against Enterococcus faecium 36711 assessed as inhibition of bacterial growth incubated for 18 hrs by broth microdilution method; assay type: functional
Staphylococcus aureus [18] = assay: Antibacterial activity against methicillin-resistant Staphylococcus aureus assessed as inhibition of bacterial growth incubated for 18 hrs by broth microdilution method; assay type: functional
Enterococcus gallinarum = assay: Antibacterial activity against Enterococcus gallinarum 5F52C assessed as inhibition of bacterial growth incubated for 18 hrs by broth microdilution method; assay type: functional

CCCc1c(O)c(Oc2c(Cl)c(O)c(Cl)c3c2C(=O)O[C@H](C)C3)cc(OC)c1Cl
MIC (Enterococcus faecium [1]): 16 µg/mL (≈ 34.7 µM)
MIC (Staphylococcus aureus [2]): 16 µg/mL (≈ 34.7 µM)
Activity (HUVEC): Non-Toxic
Activity (MCF7): inactive
MIC (Enterococcus faecium [3]): 32 µg/mL (≈ 69.3 µM)
MIC (Enterococcus faecalis [4]): 16 µg/mL (≈ 34.7 µM)
MIC (Bacillus subtilis): 8 µg/mL (≈ 17.3 µM)
MIC (Staphylococcus simulans): 8 µg/mL (≈ 17.3 µM)
MIC (Staphylococcus aureus [5]): 8 µg/mL (≈ 17.3 µM)
Activity (HepG2): inactive
Activity (RBE): inactive
MIC (Micrococcus luteus): 8 µg/mL (≈ 17.3 µM)
MIC (Staphylococcus aureus [6]): 16 µg/mL (≈ 34.7 µM)
Activity [7]: Non-Toxic
MIC (Staphylococcus aureus [8]): 8 µg/mL (≈ 17.3 µM)
MIC (Enterococcus faecalis [9]): 32 µg/mL (≈ 69.3 µM)
Activity (HeLa): inactive
MIC (Staphylococcus aureus [10]): 16 µg/mL (≈ 34.7 µM)
MIC (Staphylococcus aureus [11]): 8 µg/mL (≈ 17.3 µM)
Activity (HCT-116): inactive
MIC (Staphylococcus aureus [12]): 16 µg/mL (≈ 34.7 µM)
MIC (Staphylococcus aureus [13]): 32 µg/mL (≈ 69.3 µM)
MIC (Staphylococcus aureus [14]): 16 µg/mL (≈ 34.7 µM)
MIC (Staphylococcus aureus [15]): 16 µg/mL (≈ 34.7 µM)
Activity (A549): inactive
MIC (Staphylococcus aureus [16]): 16 µg/mL (≈ 34.7 µM)
MIC (Enterococcus faecium [17]): 16 µg/mL (≈ 34.7 µM)
MIC (Staphylococcus aureus [18]): 8 µg/mL (≈ 17.3 µM)
MIC (Enterococcus gallinarum): 16 µg/mL (≈ 34.7 µM)

CCCc1cc(Oc2c(O)c(Cl)c(O)c(Cl)c2CCC)c(Cl)c(OC)c1Cl
MIC (Enterococcus faecium [1]): 2 µg/mL (≈ 4.4 µM)
MIC (Staphylococcus aureus [2]): 2 µg/mL (≈ 4.4 µM)
Activity (HUVEC): Non-Toxic
Activity (MCF7): inactive
MIC (Enterococcus faecium [3]): 1 µg/mL (≈ 2.2 µM)
MIC (Enterococcus faecalis [4]): 0.5 µg/mL (≈ 1.1 µM)
MIC (Bacillus subtilis): 1 µg/mL (≈ 2.2 µM)
MIC (Staphylococcus simulans): 2 µg/mL (≈ 4.4 µM)
MIC (Staphylococcus aureus [5]): 2 µg/mL (≈ 4.4 µM)
Activity (HepG2): inactive
Activity (RBE): inactive
MIC (Micrococcus luteus): 1 µg/mL (≈ 2.2 µM)
MIC (Staphylococcus aureus [6]): 1 µg/mL (≈ 2.2 µM)
Activity [7]: Non-Toxic
MIC (Staphylococcus aureus [8]): 2 µg/mL (≈ 4.4 µM)
MIC (Enterococcus faecalis [9]): 2 µg/mL (≈ 4.4 µM)
Activity (HeLa): inactive
MIC (Staphylococcus aureus [10]): 2 µg/mL (≈ 4.4 µM)
MIC (Staphylococcus aureus [11]): 2 µg/mL (≈ 4.4 µM)
Activity (HCT-116): inactive
MIC (Staphylococcus aureus [12]): 2 µg/mL (≈ 4.4 µM)
MIC (Staphylococcus aureus [13]): 2 µg/mL (≈ 4.4 µM)
MIC (Staphylococcus aureus [14]): 2 µg/mL (≈ 4.4 µM)
MIC (Staphylococcus aureus [15]): 2 µg/mL (≈ 4.4 µM)
Activity (A549): inactive
MIC (Staphylococcus aureus [16]): 2 µg/mL (≈ 4.4 µM)
MIC (Enterococcus faecium [17]): 2 µg/mL (≈ 4.4 µM)
MIC (Staphylococcus aureus [18]): 2 µg/mL (≈ 4.4 µM)
MIC (Enterococcus gallinarum): 4 µg/mL (≈ 8.81 µM)

CCCc1c(Cl)c(O)cc2c1Oc1cc(O)c(Cl)c(CCC)c1C(=O)O2
MIC (Enterococcus faecium [1]): 32 µg/mL (≈ 80.6 µM)
MIC (Staphylococcus aureus [2]): 8 µg/mL (≈ 20.1 µM)
MIC (Enterococcus faecium [3]): 16 µg/mL (≈ 40.3 µM)
MIC (Enterococcus faecalis [4]): 2 µg/mL (≈ 5.03 µM)
MIC (Bacillus subtilis): 1 µg/mL (≈ 2.52 µM)
MIC (Staphylococcus simulans): 4 µg/mL (≈ 10.1 µM)
MIC (Staphylococcus aureus [5]): 4 µg/mL (≈ 10.1 µM)
MIC (Micrococcus luteus): 8 µg/mL (≈ 20.1 µM)
MIC (Staphylococcus aureus [6]): 8 µg/mL (≈ 20.1 µM)
MIC (Staphylococcus aureus [8]): 4 µg/mL (≈ 10.1 µM)
MIC (Enterococcus faecalis [9]): 8 µg/mL (≈ 20.1 µM)
MIC (Staphylococcus aureus [10]): 4 µg/mL (≈ 10.1 µM)
MIC (Staphylococcus aureus [11]): 2 µg/mL (≈ 5.03 µM)
MIC (Staphylococcus aureus [12]): 4 µg/mL (≈ 10.1 µM)
MIC (Staphylococcus aureus [13]): 8 µg/mL (≈ 20.1 µM)
MIC (Staphylococcus aureus [14]): 4 µg/mL (≈ 10.1 µM)
MIC (Staphylococcus aureus [15]): 2 µg/mL (≈ 5.03 µM)
MIC (Staphylococcus aureus [16]): 4 µg/mL (≈ 10.1 µM)
MIC (Enterococcus faecium [17]): 16 µg/mL (≈ 40.3 µM)
MIC (Staphylococcus aureus [18]): 4 µg/mL (≈ 10.1 µM)
MIC (Enterococcus gallinarum): 8 µg/mL (≈ 20.1 µM)
